Measured values taken from PubChem BioAssay (NCI).
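Following 48 hours of exposure in 96-well plates, responses at five concentrations were used to interpolate endpoints linearly. GI50 = concentration required for 50% inhibition of growth. TGI marks complete inhibition of growth.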

Tests used:
Assay in all cases: NCI-60 cell line screen, 48 h
SW-620 colon = test system: SW-620 colon
MCF7 breast = test system: MCF7 breast
HOP-92 NSCLC = test system: HOP-92 NSCLC
786-0 renal = test system: 786-0 renal
A549 NSCLC = test system: A549 NSCLC
UACC-257 melanoma = test system: UACC-257 melanoma
HCT-15 colon = test system: HCT-15 colon
OVCAR-8 ovarian = test system: OVCAR-8 ovarian
SK-MEL-5 melanoma = test system: SK-MEL-5 melanoma
SNB-75 CNS = test system: SNB-75 CNS
SF-268 CNS = test system: SF-268 CNS
A498 renal = test system: A498 renal
RPMI-8226 leukemia = test system: RPMI-8226 leukemia
SK-MEL-28 melanoma = test system: SK-MEL-28 melanoma
LOX IMVI melanoma = test system: LOX IMVI melanoma
MALME-3M melanoma = test system: MALME-3M melanoma
SN12C renal = test system: SN12C renal
NCI/ADR-RES ovarian = test system: NCI/ADR-RES ovarian
MDA-MB-231 breast = test system: MDA-MB-231 breast
KM12 colon = test system: KM12 colon
SF-295 CNS = test system: SF-295 CNS
CAKI-1 renal = test system: CAKI-1 renal
MDA-MB-435 = test system: MDA-MB-435
RXF 393 renal = test system: RXF 393 renal
BT-549 breast = test system: BT-549 breast
NCI-H226 lung = test system: NCI-H226 lung
CCRF-CEM leukemia = test system: CCRF-CEM leukemia
M14 melanoma = test system: M14 melanoma
T-47D breast = test system: T-47D breast
UO-31 renal = test system: UO-31 renal
DU-145 prostate = test system: DU-145 prostate
U251 CNS = test system: U251 CNS
K-562 leukemia = test system: K-562 leukemia
TK-10 renal = test system: TK-10 renal
NCI-H23 lung = test system: NCI-H23 lung
COLO 205 colon = test system: COLO 205 colon
HCT-116 colon = test system: HCT-116 colon
MOLT-4 leukemia = test system: MOLT-4 leukemia
EKVX NSCLC = test system: EKVX NSCLC
SNB-19 CNS = test system: SNB-19 CNS
UACC-62 melanoma = test system: UACC-62 melanoma
PC-3 prostate = test system: PC-3 prostate
IGROV1 ovarian = test system: IGROV1 ovarian
HCC-2998 colon = test system: HCC-2998 colon
OVCAR-5 ovarian = test system: OVCAR-5 ovarian
OVCAR-3 ovarian = test system: OVCAR-3 ovarian
ACHN renal = test system: ACHN renal
HL-60(TB) leukemia = test system: HL-60(TB) leukemia
HOP-62 NSCLC = test system: HOP-62 NSCLC
SK-OV-3 ovarian = test system: SK-OV-3 ovarian
OVCAR-4 ovarian = test system: OVCAR-4 ovarian
SK-MEL-2 melanoma = test system: SK-MEL-2 melanoma
HT29 colon = test system: HT29 colon
HS 578T breast = test system: HS 578T breast
SF-539 CNS = test system: SF-539 CNS
NCI-H460 lung = test system: NCI-H460 lung

Question: With Cc1ccsc1/C=N/Nc1cnccn1 as the compound, how does the TGI (SW-620 colon) read?
Answer: > 100 µM

Question: What about the TGI (MCF7 breast) of the same compound?
Answer: > 100 µM

Question: And the TGI (HOP-92 NSCLC)?
Answer: > 100 µM

Question: And the TGI (786-0 renal)?
Answer: > 100 µM

Question: What about the TGI (A549 NSCLC) of the same compound?
Answer: > 100 µM

Question: What about the TGI (UACC-257 melanoma) of the same compound?
Answer: > 100 µM

Question: And the TGI (HCT-15 colon)?
Answer: > 100 µM

Question: What about the TGI (OVCAR-8 ovarian) of the same compound?
Answer: > 100 µM

Question: What about the TGI (SK-MEL-5 melanoma) of the same compound?
Answer: > 100 µM

Question: What about the TGI (SNB-75 CNS) of the same compound?
Answer: > 100 µM

Question: What about the TGI (SF-268 CNS) of the same compound?
Answer: > 100 µM

Question: And the TGI (A498 renal)?
Answer: > 100 µM

Question: And the TGI (RPMI-8226 leukemia)?
Answer: > 100 µM

Question: What about the TGI (SK-MEL-28 melanoma) of the same compound?
Answer: > 100 µM

Question: What about the TGI (LOX IMVI melanoma) of the same compound?
Answer: > 100 µM

Question: What about the TGI (MALME-3M melanoma) of the same compound?
Answer: > 100 µM

Question: What about the TGI (SN12C renal) of the same compound?
Answer: > 100 µM

Question: What about the TGI (NCI/ADR-RES ovarian) of the same compound?
Answer: > 100 µM

Question: And the TGI (MDA-MB-231 breast)?
Answer: > 100 µM

Question: And the TGI (KM12 colon)?
Answer: > 100 µM

Question: What about the TGI (SF-295 CNS) of the same compound?
Answer: > 100 µM

Question: And the TGI (CAKI-1 renal)?
Answer: > 100 µM

Question: What about the TGI (MDA-MB-435) of the same compound?
Answer: > 100 µM

Question: And the TGI (RXF 393 renal)?
Answer: > 100 µM

Question: And the TGI (BT-549 breast)?
Answer: > 100 µM

Question: And the TGI (NCI-H226 lung)?
Answer: > 100 µM

Question: And the TGI (CCRF-CEM leukemia)?
Answer: > 100 µM

Question: What about the TGI (M14 melanoma) of the same compound?
Answer: > 100 µM

Question: What about the TGI (T-47D breast) of the same compound?
Answer: > 100 µM

Question: And the TGI (UO-31 renal)?
Answer: > 100 µM

Question: What about the TGI (DU-145 prostate) of the same compound?
Answer: > 100 µM

Question: And the TGI (U251 CNS)?
Answer: > 100 µM

Question: And the TGI (K-562 leukemia)?
Answer: > 100 µM

Question: What about the TGI (TK-10 renal) of the same compound?
Answer: > 100 µM

Question: And the TGI (NCI-H23 lung)?
Answer: > 100 µM

Question: What about the TGI (COLO 205 colon) of the same compound?
Answer: > 100 µM

Question: And the TGI (HCT-116 colon)?
Answer: > 100 µM

Question: And the TGI (MOLT-4 leukemia)?
Answer: > 100 µM

Question: And the TGI (EKVX NSCLC)?
Answer: > 100 µM

Question: What about the TGI (SNB-19 CNS) of the same compound?
Answer: > 100 µM

Question: What about the TGI (UACC-62 melanoma) of the same compound?
Answer: > 100 µM

Question: And the TGI (PC-3 prostate)?
Answer: > 100 µM

Question: What about the TGI (IGROV1 ovarian) of the same compound?
Answer: > 100 µM

Question: And the TGI (HCC-2998 colon)?
Answer: > 100 µM

Question: And the TGI (OVCAR-5 ovarian)?
Answer: > 100 µM

Question: What about the TGI (OVCAR-3 ovarian) of the same compound?
Answer: > 100 µM

Question: What about the TGI (ACHN renal) of the same compound?
Answer: > 100 µM

Question: What about the TGI (HL-60(TB) leukemia) of the same compound?
Answer: > 100 µM

Question: What about the TGI (HOP-62 NSCLC) of the same compound?
Answer: > 100 µM

Question: And the TGI (SK-OV-3 ovarian)?
Answer: > 100 µM

Question: And the TGI (OVCAR-4 ovarian)?
Answer: > 100 µM

Question: And the TGI (SK-MEL-2 melanoma)?
Answer: > 100 µM

Question: What about the TGI (HT29 colon) of the same compound?
Answer: > 100 µM

Question: And the TGI (HS 578T breast)?
Answer: > 100 µM

Question: How did the GI50 (HOP-92 NSCLC) turn out when OC(c1cc2cc(Cl)ccc2c2cc(C(F)(F)F)ccc12)C1CCCCN1 (centres undefined) was run?
Answer: 1.42 µM

Question: And the TGI (HOP-92 NSCLC)?
Answer: 2.97 µM

Question: And the GI50 (SNB-75 CNS)?
Answer: 1.69 µM

Question: And the TGI (SNB-75 CNS)?
Answer: 3.14 µM

Question: What about the GI50 (RPMI-8226 leukemia) of the same compound?
Answer: 2.21 µM

Question: What about the TGI (RPMI-8226 leukemia) of the same compound?
Answer: 4.92 µM

Question: And the GI50 (SF-295 CNS)?
Answer: 1.96 µM

Question: And the TGI (SF-295 CNS)?
Answer: 3.69 µM

Question: And the GI50 (UO-31 renal)?
Answer: 1.59 µM

Question: And the TGI (UO-31 renal)?
Answer: 3.06 µM

Question: And the GI50 (DU-145 prostate)?
Answer: 1.9 µM

Question: What about the TGI (DU-145 prostate) of the same compound?
Answer: 3.37 µM

Question: What about the GI50 (OVCAR-5 ovarian) of the same compound?
Answer: 1.48 µM

Question: And the TGI (OVCAR-5 ovarian)?
Answer: 2.94 µM

Question: What about the GI50 (HL-60(TB) leukemia) of the same compound?
Answer: 1.92 µM

Question: What about the TGI (HL-60(TB) leukemia) of the same compound?
Answer: 3.72 µM

Question: Which results are given for C=C(C)[C@@H]1CC[C@]2(CN)CC[C@]3(C)[C@H](CC[C@@H]4[C@@]5(C)CCCNC(C)(C)[C@@H]5CC[C@]43C)[C@@H]12?
Answer: GI50 (SW-620 colon): 1.53 µM; TGI (SW-620 colon): 3.05 µM; GI50 (MCF7 breast): 1.27 µM; TGI (MCF7 breast): 2.7 µM; GI50 (HOP-92 NSCLC): 1.69 µM; TGI (HOP-92 NSCLC): 3.28 µM; GI50 (786-0 renal): 1.74 µM; TGI (786-0 renal): 3.57 µM; GI50 (A549 NSCLC): 1.95 µM; TGI (A549 NSCLC): 3.71 µM; GI50 (UACC-257 melanoma): 2.09 µM; TGI (UACC-257 melanoma): 4.35 µM; GI50 (HCT-15 colon): 1.19 µM; TGI (HCT-15 colon): 2.49 µM; GI50 (SK-MEL-5 melanoma): 1.56 µM; TGI (SK-MEL-5 melanoma): 3 µM; GI50 (SNB-75 CNS): 1.63 µM; TGI (SNB-75 CNS): 3.11 µM; GI50 (A498 renal): 1.5 µM; TGI (A498 renal): 2.92 µM; GI50 (SK-MEL-28 melanoma): 1.74 µM; TGI (SK-MEL-28 melanoma): 3.38 µM; GI50 (MALME-3M melanoma): 1.75 µM; TGI (MALME-3M melanoma): 3.63 µM; GI50 (SN12C renal): 1.75 µM; TGI (SN12C renal): 3.31 µM; GI50 (MDA-MB-231 breast): 1.79 µM; TGI (MDA-MB-231 breast): 3.52 µM; GI50 (SF-295 CNS): 1.78 µM; TGI (SF-295 CNS): 3.29 µM; GI50 (CAKI-1 renal): 1.66 µM; TGI (CAKI-1 renal): 3.02 µM; GI50 (MDA-MB-435): 1.6 µM; TGI (MDA-MB-435): 2.98 µM; GI50 (RXF 393 renal): 1.75 µM; TGI (RXF 393 renal): 3.49 µM; GI50 (NCI-H226 lung): 1.88 µM; TGI (NCI-H226 lung): 3.8 µM; GI50 (CCRF-CEM leukemia): 2.27 µM; TGI (CCRF-CEM leukemia): 4.92 µM; GI50 (M14 melanoma): 1.69 µM; TGI (M14 melanoma): 3.18 µM; GI50 (T-47D breast): 1.88 µM; TGI (T-47D breast): 3.81 µM; GI50 (UO-31 renal): 1.56 µM; TGI (UO-31 renal): 3.05 µM; GI50 (SF-539 CNS): 1.62 µM; TGI (SF-539 CNS): 3.09 µM; GI50 (DU-145 prostate): 1.59 µM; TGI (DU-145 prostate): 2.97 µM; GI50 (U251 CNS): 1.8 µM; TGI (U251 CNS): 3.33 µM; GI50 (TK-10 renal): 1.86 µM; TGI (TK-10 renal): 3.52 µM; GI50 (NCI-H23 lung): 1.7 µM; TGI (NCI-H23 lung): 3.3 µM; GI50 (COLO 205 colon): 1.4 µM; TGI (COLO 205 colon): 2.91 µM; GI50 (HCT-116 colon): 1.42 µM; TGI (HCT-116 colon): 2.96 µM; GI50 (MOLT-4 leukemia): 1.93 µM; TGI (MOLT-4 leukemia): 4.47 µM; GI50 (EKVX NSCLC): 1.77 µM; TGI (EKVX NSCLC): 3.39 µM; GI50 (UACC-62 melanoma): 1.87 µM; TGI (UACC-62 melanoma): 3.42 µM; GI50 (PC-3 prostate): 1.77 µM; TGI (PC-3 prostate): 3.2 µM; GI50 (NCI-H460 lung): 1.24 µM; TGI (NCI-H460 lung): 2.67 µM; GI50 (IGROV1 ovarian): 1.82 µM; TGI (IGROV1 ovarian): 3.57 µM; GI50 (OVCAR-5 ovarian): 1.59 µM; TGI (OVCAR-5 ovarian): 3.11 µM; GI50 (ACHN renal): 1.77 µM; TGI (ACHN renal): 3.19 µM; GI50 (HOP-62 NSCLC): 1.93 µM; TGI (HOP-62 NSCLC): 3.73 µM; GI50 (SK-OV-3 ovarian): 1.82 µM; TGI (SK-OV-3 ovarian): 3.4 µM; GI50 (SK-MEL-2 melanoma): 2.11 µM; TGI (SK-MEL-2 melanoma): 3.88 µM; GI50 (HS 578T breast): 1.8 µM; TGI (HS 578T breast): 4 µM
